Patent publication US12662491B2 (Redona Therapeutics, Inc., priority 2020, dated 2026)
Read-outs that look alike come from different tables or passages of the source.

Biological target: T1, Zcchc11 enzyme (Homo sapiens, UniProt Q5TAX3)
T1 construct: made in house; host or cells: HEK293 cells (Zcchc11); E. coli Rosetta II (LIN28A)
T1 sequence (Q5TAX3 212-1420): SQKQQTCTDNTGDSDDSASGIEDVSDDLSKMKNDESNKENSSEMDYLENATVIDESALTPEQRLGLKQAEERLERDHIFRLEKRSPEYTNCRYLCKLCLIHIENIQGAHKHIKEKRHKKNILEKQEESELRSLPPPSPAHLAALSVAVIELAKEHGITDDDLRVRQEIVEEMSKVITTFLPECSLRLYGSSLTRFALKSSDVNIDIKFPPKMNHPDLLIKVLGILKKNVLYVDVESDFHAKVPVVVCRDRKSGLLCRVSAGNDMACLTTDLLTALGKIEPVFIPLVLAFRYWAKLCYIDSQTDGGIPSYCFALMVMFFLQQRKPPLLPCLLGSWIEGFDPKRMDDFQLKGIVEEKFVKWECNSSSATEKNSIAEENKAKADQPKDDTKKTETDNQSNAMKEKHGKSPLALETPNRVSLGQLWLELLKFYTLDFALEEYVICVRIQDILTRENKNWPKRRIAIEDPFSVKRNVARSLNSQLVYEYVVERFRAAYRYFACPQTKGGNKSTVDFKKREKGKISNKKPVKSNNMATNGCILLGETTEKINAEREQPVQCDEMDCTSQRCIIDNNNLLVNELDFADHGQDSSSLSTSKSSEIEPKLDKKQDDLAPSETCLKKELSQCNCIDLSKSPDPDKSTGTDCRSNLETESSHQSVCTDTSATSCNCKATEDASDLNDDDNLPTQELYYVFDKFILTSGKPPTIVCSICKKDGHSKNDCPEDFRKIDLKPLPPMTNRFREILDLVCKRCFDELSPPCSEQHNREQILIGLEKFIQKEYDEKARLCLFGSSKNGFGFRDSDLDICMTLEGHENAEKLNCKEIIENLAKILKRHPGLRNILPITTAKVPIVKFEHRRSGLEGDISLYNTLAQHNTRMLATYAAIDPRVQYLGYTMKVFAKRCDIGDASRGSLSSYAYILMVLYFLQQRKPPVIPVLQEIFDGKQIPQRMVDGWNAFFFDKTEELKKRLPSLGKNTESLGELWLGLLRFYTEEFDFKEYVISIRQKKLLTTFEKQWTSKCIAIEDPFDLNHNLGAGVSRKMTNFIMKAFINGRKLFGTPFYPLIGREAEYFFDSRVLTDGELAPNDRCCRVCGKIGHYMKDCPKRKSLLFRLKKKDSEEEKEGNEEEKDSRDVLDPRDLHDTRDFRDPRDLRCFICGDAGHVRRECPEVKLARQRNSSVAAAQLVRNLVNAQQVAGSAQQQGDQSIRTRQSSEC
Assay: TUTase assay (Zcchc11 assay, Lin28a-dependent polyuridylation of pre-let-7)
Type: biochemical
Settings: read-out: Potency Lin28a-dep Z11 IC50
In short: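 Polyuridylation measured as fluorescein loss when a rhodamine-labelled A20 probe anneals to U-tails added to fluorescein pre-let-7 (2 nM). Reaction: truncated Zcchc11 0.2 nM, E. coli-made LIN28A 10 nM, UTP 5 uM, HEPES pH 7.3, room temperature. Initial rates fitted to four-parameter IC50.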

[1] = Lin28a-dependent Zcchc11 (Z11) TUTase assay
[2] = Lin28a-dependent Zcchc11 (Z11) TUTase activity

Row | SMILES | IC50 [1] [nM] | IC50 [2] [nM] | other results
1 | Cc1cc(O)ccc1-n1cc(C(=O)O)c(=O)c2cc(F)c(N3CCC[C@@H]3COc3ccccn3)cc21 [Example 396, (R)-6-fluoro-1-(4-hydroxy-2-methylphenyl)-4-oxo-7-(2-((pyridin-2-yloxy)methyl)pyrrolidin-1-yl)-1,4-dihydroquinoline-3-carboxylic acid] | 1000 to 10000 |  | 
2 | O=C(O)c1cn(C2CC2)c2cc(N3CCC[C@@H]3COc3ccccn3)c(F)cc2c1=O [Example 447, (R)-1-cyclopropyl-6-fluoro-4-oxo-7-(2-((pyridin-2-yloxy)methyl)pyrrolidin-1-yl)-1,4-dihydroquinoline-3-carboxylic acid] | 1000 to 10000 |  | 
3 | O=C(O)c1cn(-c2ccc(O)cc2)c2cc(N3CCC[C@@H]3Cn3ccc4cccnc43)c(F)cc2c1=O [Compound 113, (R)-7-(2-((1H-pyrrolo[2,3-b]pyridin-1-yl)methyl)pyrrolidin-1-yl)-6-fluoro-1-(4-hydroxy-phenyl)-4-oxo-1,4-dihydro-quinoline-3-carboxylic acid] |  | ≤ 1000 | 
4 | O=C(O)c1cn(-c2cnccn2)c2nc(N3CCC[C@@H]3COc3ncccc3Cl)c(Cl)cc2c1=O [Example 19, (R)-6-chloro-7-(2-(((3-chloropyridin-2-yl)oxy)methyl)pyrrolidin-1-yl)-4-oxo-1-(pyrazin-2-yl)-1,4-dihydro-1,8-naphthyridine-3-carboxylic acid] |  |  | IC50 (LIN28A 10 nM, Zcchc11 0.2 nM, 5′-fluorescein pre-let-7 miRNA 2 nM, UTP 5 uM, room temperature, 30 minutes pre-incubation): ≤ 1000 nM
5 | O=C(O)c1cn(-c2cnccn2)c2cc(N3CCC[C@@H]3COc3ccccn3)c(F)cc2c1=O [Example 402, (R)-6-fluoro-4-oxo-1-(pyrazin-2-yl)-7-(2-((pyridin-2-yloxy)methyl)pyrrolidin-1-yl)-1,4-dihydroquinoline-3-carboxylic acid] | 1000 to 10000 |  | 
6 | COCCOc1ccc(-n2cc(C(=O)O)c(=O)c3cc(Cl)c(N4CCC[C@@H]4COc4ncccc4Cl)cc32)cn1 [Example 415, (R)-6-chloro-7-(2-(((3-chloropyridin-2-yl)oxy)methyl)pyrrolidin-1-yl)-1-(6-(2-methoxy-ethoxy)pyridin-3-yl)-4-oxo-1,4-dihydroquinoline-3-carboxylic acid] | ≤ 1000 |  | 
7 | O=C(O)c1cn(-c2ccccc2)c2cc(N3CCC[C@@H]3COc3ncccc3Cl)c(F)cc2c1=O [Compound 97, (R)-7-(2-(((3-chloro-pyridin-2-yl)oxy)methyl)pyrrolidin-1-yl)-6-fluoro-4-oxo-1-phenyl-1,4-dihydro-quinoline-3-carboxylic acid] |  | ≤ 1000 | 
8 | Cc1nn(C)cc1-n1cc(C(=O)O)c(=O)c2cc(Cl)c(N3CCC[C@@H]3COc3ncccc3Cl)cc21 [Compound 168, (R)-6-chloro-7-(2-(((3-chloropyridin-2-yl)oxy)methyl)pyrrolidin-1-yl)-1-(1,3-dimethyl-1H-pyrazol-4-yl)-4-oxo-1,4-dihydro-quinoline-3-carboxylic acid] |  | ≤ 1000 | 
9 | COc1ccc(Cl)c(OC[C@H]2CC(C(C)C)CN2c2cc3c(cc2Cl)c(=O)c(C(=O)O)cn3-c2ccc(N3CC(N(C)C)C3)nc2)n1 (mixture of isomers) [Compound 227, Rac-6-chloro-7-((2R)-2-(((3-chloro-6-(11-oxidaneyl)pyridin-2-yl)oxy)methyl)-4-isopropyl-pyrrolidin-1-yl)-1-(6-(3-(dimethyl-amino)azetidin-1-yl)pyridin-3-yl)-4-oxo-1,4-dihydro-quinoline-3-carboxylic acid] |  | ≤ 1000 | 
10 | COCCOc1cnc(-n2cc(C(=O)O)c(=O)c3cc(Cl)c(N4CCC[C@@H]4COc4ncccc4Cl)cc32)cn1 [Example 419, (R)-6-chloro-7-(2-(((3-chloropyridin-2-yl)oxy)methyl)pyrrolidin-1-yl)-1-(5-(2-methoxy-ethoxy)pyrazin-2-yl)-4-oxo-1,4-dihydroquinoline-3-carboxylic acid] | ≤ 1000 |  | 
11 | COc1ccc(Cl)c(OCC23CC(CN2c2cc4c(cc2Cl)c(=O)c(C(=O)O)cn4-c2ccc(N)nc2)C3)n1 [Compound 176, 1-(6-aminopyridin-3-yl)-6-chloro-7-(1-[[(3-chloro-6-methoxy-pyridin-2-yl)oxy]methyl]-2-azabicyclo [2.1.1]hexan-2-yl)-4-oxoquinoline-3-carboxylic acid] |  | 1000 to 10000 | 
12 | O=C(O)c1cn(C2COC2)c2cc(N3CCC[C@@H]3COc3ccccn3)c(F)cc2c1=O [Compound 163, (R)-6-fluoro-1-(oxetan-3-yl)-4-oxo-7-(2-((pyridin-2-yloxy)methyl)pyrrolidin-1-yl)-1,4-dihydro-quinoline-3-carboxylic acid] |  | 1000 to 10000 | 
13 | CN(C)C1CN(c2ccc(-n3cc(C(=O)O)c(=O)c4cc(Cl)c(N5C(=O)CCCC5COc5ccccn5)cc43)cn2)C1 (stereo not drawn) [Compound 324, 6-Chloro-1-[6-[3-(dimethyl-amino)azetidin-1-yl]pyridin-3-yl]-4-oxo-7-[2-oxo-6-[(pyridin-2-yloxy)methyl]piperidin-1-yl]quinoline-3-carboxylic acid] |  | 10000 to 50000 | 
14 | COc1ccc(F)c(-n2cc(C(=O)O)c(=O)c3cc(F)c(N4CCC[C@@H]4COc4ccccn4)cc32)c1 [Example 400, (R)-6-fluoro-1-(2-fluoro-5-methoxyphenyl)-4-oxo-7-(2-((pyridin-2-yloxy)methyl)pyrrolidin-1-yl)-1,4-dihydroquinoline-3-carboxylic acid] | 1000 to 10000 |  | 

The next lines start with results.

Row | IC50 [1] [nM] | IC50 [2] [nM] | SMILES | other results
15 | ≤ 1000 |  | Cn1cncc1-n1cc(C(=O)O)c(=O)c2cc(Cl)c(N3CCC[C@@H]3COc3ncccc3Cl)cc21 [Example 567, (R)-6-chloro-7-(2-(((3-chloropyridin-2-yl)oxy)methyl)pyrrolidin-1-yl)-1-(1-methyl-1H-imidazol-5-yl)-4-oxo-1,4-dihydroquinoline-3-carboxylic acid] | 
16 | ≤ 1000 |  | CCc1cc2c(=O)c(C(=O)O)cn(-c3cnccn3)c2cc1N1CCC[C@@H]1COc1ncccc1Cl [Example 551, (R)-7-(2-(((3-chloropyridin-2-yl)oxy)methyl)pyrrolidin-1-yl)-6-ethyl-4-oxo-1-(pyrazin-2-yl)-1,4-dihydroquinoline-3-carboxylic acid] | 
17 | ≤ 1000 |  | COc1ccc(Cl)c(OC[C@H]2CC(N3CCCC3=O)CN2c2cc3c(cc2Cl)c(=O)c(C(=O)O)cn3-c2ccc(N3CC(N(C)C)C3)nc2)n1 (stereo partly drawn) [Example 642, 6-chloro-7-((5′R)-5′-(((3-chloro-6-methoxypyridin-2-yl)oxy)methyl)-2-oxo-[1,3′-bipyrrolidin]-1-yl)-1-(6-(3-(dimethylamino)azetidin-1-yl)pyridin-3-yl)-4-oxo-1,4-dihydroquinoline-3-carboxylic acid] | 
18 | ≤ 1000 |  | O=C(O)c1cn(-c2cnccn2)c2cc(N3CC(F)(F)C[C@@H]3COc3ncccc3Cl)c(Cl)cc2c1=O [Example 638, (R)-6-chloro-7-(2-(((3-chloropyridin-2-yl)oxy)methyl)-4,4-difluoropyrrolidin-1-yl)-4-oxo-1-(pyrazin-2-yl)-1,4-dihydroquinoline-3-carboxylic acid] | 
19 | ≤ 1000 |  | O=C(O)c1cn(-c2cnccn2)c2cc(N3C[C@@H](F)C[C@H]3COc3ncccc3Cl)c(Cl)cc2c1=O [Example 519, 6-chloro-7-((2S,4S)-2-(((3-chloropyridin-2-yl)oxy)methyl)-4-fluoropyrrolidin-1-yl)-4-oxo-1-(pyrazin-2-yl)-1,4-dihydroquinoline-3-carboxylic acid] | 
20 | 1000 to 10000 |  | O=C(O)c1cn(C2(c3ccccc3)CC2)c2cc(N3CCC[C@@H]3COc3ncccc3Cl)c(Cl)cc2c1=O [Example 588, (R)-6-chloro-7-(2-(((3-chloropyridin-2-yl)oxy)methyl)pyrrolidin-1-yl)-4-oxo-1-(1-phenylcyclo-propyl)-1,4-dihydroquinoline-3-carboxylic acid] | 
21 | ≤ 1000 |  | Nc1cc(-n2cc(C(=O)O)c(=O)c3cc(Cl)c(N4CCC[C@@H]4COc4ncccc4Cl)cc32)cnn1 [Example 617, (R)-1-(6-aminopyridazin-4-yl)-6-chloro-7-(2-(((3-chloropyridin-2-yl)oxy)methyl)pyrrolidin-1-yl)-4-oxo-1,4-dihydroquinoline-3-carboxylic acid] | 
